The values that follow come from PMC3073400 (Nature biotechnology, 2010).

The format of this test is in vivo. As to conditions: rat brain, 500 μM dopamine alone, no contrast agent, data not shown.

For the molecule `NCCc1ccc(O)c(O)c1` [dopamine], the “MRI signal changes on infusion alone” value is listed as “no noticeable signal changes”.
